# Laboratory results reported in patent US20240279233A1, “MACROCYCLIC TAK1 INHIBITORS” (Aqilion AB, priority 2021, published 2024).
# Read-outs that look alike come from different tables or passages of the source.
# Assays:
# [1] = amide bond, 14-membered ring
# [2] = Solubility assay in phosphate buffer; details: phosphate buffer, pH 7.4, aqueous buffer, kinetic from dmso stock, Solubility (μM), phosphate buffer 100 mM, pH 7.4, room temperature, 20-24 h, LC-UV
# Procedure: The aqueous solubility of selected example compounds was determined as follows; 6 μL of DMSO stock solution of the selected example was added to 594 μL phosphate buffer (100 mM, pH 7.4). The resulting mixture was equilibrated over night (20-24 h, Alligator Shaker, room temperature). The mixture was then filtered (Millex LH 0.45 μm) and the concentration/solubility was determined by LC-UV quantification.
# [3] = biological target: human recombinant TAK1-TAB1 Kinase (TAK1 (1-303) and TAB1 (437-end)) (Homo sapiens (Human), UniProt O43318); experiment: TAK1 biochemical ADP-Glo kinase assay; details: MBP substrate
# Chain of human recombinant TAK1-TAB1 Kinase (TAK1 (1-303) and TAB1 (437-end)) (O43318 other isoform, or with tags, fused parts or gaps): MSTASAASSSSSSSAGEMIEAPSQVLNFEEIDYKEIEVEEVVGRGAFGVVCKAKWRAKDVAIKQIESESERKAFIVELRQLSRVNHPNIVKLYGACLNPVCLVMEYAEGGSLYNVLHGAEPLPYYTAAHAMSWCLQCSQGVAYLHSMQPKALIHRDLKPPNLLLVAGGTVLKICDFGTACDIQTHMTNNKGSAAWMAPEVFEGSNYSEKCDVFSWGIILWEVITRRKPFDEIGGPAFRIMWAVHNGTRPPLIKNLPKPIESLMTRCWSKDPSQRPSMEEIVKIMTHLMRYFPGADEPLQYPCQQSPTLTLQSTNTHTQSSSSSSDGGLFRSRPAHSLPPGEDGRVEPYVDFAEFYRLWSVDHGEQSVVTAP
# How it was run: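 Inhibition of human recombinant TAK1-TAB1 kinase was measured with a Promega ADP-Glo luminescence assay in 384-well plates. Compounds in 5% DMSO were pre-incubated 10 min with 2 μl TAK1-TAB1 (7.5 ng/μl) in buffer of Tris pH 7.5, MgCl2, DTT and BSA. MBP substrate and ATP were then added for 1 hour at room temperature. ADP-Glo reagent and kinase detection substrate followed, luminescence was read on an Envision, and IC50 came from non-linear regression.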
# [4] = system: phosphorylated p38 (TAK1 activity) in THP-1 cells; experiment: Cell-based p38 phosphorylation assay (Western blot); details: PMA-differentiated THP-1 cells, compound 30 minutes then 200 ng/ml LPS 30 minutes
# Procedure: The cellular activity of example compounds 2, 3 and 9 and the comparative example (i.e. takinib) for inhibiting TAK1 activity was evaluated using an in vitro functional cell assay.
# THP-1 cells were incubated at 37° C. in 5% CO2. THP-1 cells were cultured in RPMI 1640, 10% FBS, 1% Penicillin-Streptomycin.
# THP-1 cells were treated with 100 nM phorbol 12-myristate 13-acetate (PMA) to induce macrophage differentiation and seeded at the density of 1×10^6 cells/well (2 ml/well in a 6-well plate) for 72 hours. The cell culture media was then replaced with PMA-free media and incubated for further 48 hours. Test compounds were prepared as 200×final assay concentration stocks in DMSO (final concentrations in the assay were 10-0.03 μM in 0.5% DMSO, details provided below). Following THP-1 cell differentiation, cells were treated with different concentrations of the control compound NG25 (CAS No.:1315355-93-1, Tan L, et al. J Med Chem. 2015, 58(1), 183-96) or test compounds (10 μl/well) for 30 minutes followed by 200 ng/ml LPS for 30 minutes.
# Test items were kept as 10 mM stock solutions in 100% DMSO. The serial dilution of compounds was prepared as 200× serial dilutions of desired final concentration in […] to reach 0.5% DMSO working solution (see Table 3 below).
# Dilution series of compounds from 10 μM final highest concentration to 0.03 μM final low concentration were first made in DMSO (see Table 3), 10 μl of each dilution was mixed into 2 ml of cell cultures (0.5% DMSO per well).
# 10 μl of DMSO was added to the control. All plates were incubated at 37° C., 5% CO2 for 30 minutes and LPS was added to a final concentration of 200 ng/ml.
# For Western blot analysis, cells were lysed (50 mM Tris, 150 mM NaCl, 1 mM EDTA, 1% Triton-X100, 1 mM DTT, complete protease and PhosStop phosphatase inhibitor) after indicated treatment and run on NuPAGE Bis-Tris gel 4-12% gradient (Invitrogen). Following transfer to PVDF membrane and blocking in 5% BSA in PBST, membranes were incubated with primary antibody overnight (specific for phosphorylated p38; Cell Signaling, 1:1,000 dilution). After incubation with species-specific secondary antibodies for 1 hour at room temperature, the membranes were visualized with the ECL SuperSignal™ West Pico PLUS Chemiluminescent Substrate (Thermo Scientific). The images were captured with iBright Western Blot Imaging Systems (Invitrogen) and quantified with ImageJ software (Java-based image processing program developed at the National Institutes of Health and the Laboratory for Optical and Computational Instrumentation). Anti-β-actin antibodies were used as the loading control for whole-cell extracts in all samples (anti-β actin; Sigma-Aldrich, 1:5000 dilution, 1 hour incubation).
# For immunoblotting, cells were lysed directly in six-well plates by incubating for 30 min at 4° C. in 60 μl Triton lysis buffer. The lysates were centrifuged for 15 minutes at 13,000×g at 4° C. Equal amount of protein from each supernatants were resuspended with 5× sample buffer. Samples were boiled for 10 minutes and then resolved by 4-12% SDS-PAGE (100 V). Proteins were transferred from gel to PVDF membranes ([…] pore size) following the recommended setting (90 minutes, 85 V). […]
# [5] = amide bond, 14-membered ring; remark: listed apart in the source
# [6] = 10 μM ATP, read-out: TAK1 Mean IC50 (nM) @ 10 μM ATP
# [7] = 1 mM ATP, read-out: TAK1 Mean IC50 (nM) @ 1 mM ATP
solubility [2],"IC50 [3, 6]",Structure (SMILES),further results
0.5 µM,3 nM,"O=C1NCCCCCn2c(nc3ccccc32)NC(=O)c2cccc1c2 [Example 2, 1^1H-2,6-diaza-1(2,1)-benzo[d]imidazola-4(1,3)-benzenacycloundecaphane-3,5-dione]","IC50 ([4]; Homo sapiens, 0.5 h, read-out: IC50 (nM) in phospho-p38 cell assay): 200 nM; ring closure, isolated yield ([1]; from NCCCCCn1c(NC(=O)c2cccc(C(=O)O)c2)nc2ccccc21, HATU/DIEA, DMF, 51.0 mM, 25.0 °C, 16.0 h): 2%"
1.1 µM,366 nM,"COc1ncccc1-c1cccc2nc3n(c12)CCCCCNC(=O)c1cccc(c1)C(=O)N3 [Example 28, (E)-1^7-(2-methoxypyridin-3-yl)-1^2,1^3-dihydro-1^1H-2,6-diaza-1(2,1)-benzo[d]imidazola-4(1,3)-benzenacycloundecaphane-3,5-dione]","ring closure, yield after HPLC ([5]; from COc1ncccc1-c1cccc2nc(NC(=O)c3cccc(C(=O)O)c3)n(CCCCCN)c12, HATU/DIEA, DMF, 0.49 mM, 16.0 h): 19%"
10 µM,2 nM,"C[C@@H]1CCCCNC(=O)c2cccc(c2)C(=O)Nc2nc3cccc(S(=O)(=O)N(C)C)c3n21 [Example 46, (R,E)-N,N,11-trimethyl-3,5-dioxo-1^2,1^3-dihydro-1^1H-2,6-diaza-1(2,1)-benzo[d]imidazola-4(1,3)-benzenacycloundecaphane-1^7-sulfonamide]","ring closure, yield after HPLC ([5]; from C[C@H](CCCCN)n1c(NC(=O)c2cccc(C(=O)O)c2)nc2cccc(S(=O)(=O)N(C)C)c21, HATU/DIEA, THF, 0.5 mM, 50.0 °C, 16.0 h): 24%"
95 µM,3 nM,"Cc1nnc(-c2cccc3nc4n(c23)[C@H](C)CCCCNC(=O)c2cccc(c2)C(=O)N4)n1C [Example 57, (R,E)-1^7-(4,5-dimethyl-4H-1,2,4-triazol-3-yl)-11-methyl-1^2,1^3-dihydro-1^1H-2,6-diaza-1(2,1)-benzo[d]imidazola-4(1,3)-benzenacycloundecaphane-3,5-dione]","IC50 [3, 7]: 6 nM; ring closure, yield after HPLC ([5]; from Cc1nnc(-c2cccc3nc(NC(=O)c4cccc(C(=O)O)c4)n([C@H](C)CCCCN)c23)n1C, HATU/DIEA, THF, 0.5 mM, 50.0 °C, 23.0 h): 31%"
95 µM,4 nM,"C[C@@H]1CCCCNC(=O)c2cccc(c2)C(=O)Nc2nc3cccc(N4CCN(C)C4=O)c3n21 [Example 65, (R,E)-11-methyl-1^7-(3-methyl-2-oxoimidazolidin-1-yl)-1^2,1^3-dihydro-1^1H-2,6-diaza-1(2,1)-benzo[d]imidazola-4(1,3)-benzenacycloundecaphane-3,5-dione]","ring closure, isolated yield ([1]; from C[C@H](CCCCN)n1c(NC(=O)c2cccc(C(=O)O)c2)nc2cccc(N3CCN(C)C3=O)c21, HATU/DIEA, THF, 0.5 mM, 25.0 °C, 96.0 h): 15%"
5.2 µM,3 nM,"C[C@@H]1CCCCNC(=O)c2cccc(c2)C(=O)Nc2nc3cccc(-c4cn(C)nn4)c3n21 [Example 66, (R,E)-11-methyl-1^7-(1-methyl-1H-1,2,3-triazol-4-yl)-1^2,1^3-dihydro-1^1H-2,6-diaza-1(2,1)-benzo[d]imidazola-4(1,3)-benzenacycloundecaphane-3,5-dione]","ring closure, yield after HPLC ([5]; from C[C@H](CCCCN)n1c(NC(=O)c2cccc(C(=O)O)c2)nc2cccc(-c3cn(C)nn3)c21, HATU/DIEA, THF, 0.48 mM, 25.0 °C, 78.0 h): 5%"
0.2 µM,4 nM,"O=C1NCCCCCn2c(nc3cc(F)ccc32)NC(=O)c2cccc1c2 [Example 99, (E)-1^5-fluoro-1^2,1^3-dihydro-1^1H-2,6-diaza-1(2,1)-benzo[d]imidazola-4(1,3)-benzenacycloundecaphane-3,5-dione]","ring closure, yield after HPLC ([5]; from NCCCCCn1c(NC(=O)c2cccc(C(=O)O)c2)nc2cc(F)ccc21, HATU/DIEA, THF, 0.5 mM, 50.0 °C, 16.0 h): 16%"

# More lines, now with the values behind:
Structure (SMILES),solubility [2],"IC50 [3, 6]",further results
C#Cc1cccc2nc3n(c12)[C@@H](C)CCCCNC(=O)c1cccc(c1)C(=O)N3,,,"ring closure, isolated yield ([1]; from C#Cc1cccc2nc(NC(=O)c3cccc(C(=O)O)c3)n([C@@H](C)CCCCN)c12, TCFH/NMI, MeCN/DMF, 0.82 mM, 0.0 °C, 4.0 h): 73%"
CC1CCCCNC(=O)c2cccc(c2)C(=O)Nc2nc3cccc(N4CCCC4=O)c3n21 (stereo not drawn),,,"ring closure, isolated yield ([1]; from CC(CCCCN)n1c(NC(=O)c2cccc(C(=O)O)c2)nc2cccc(N3CCCC3=O)c21, TCFH/NMI, DMF/MeCN, 4.2 mM, 25.0 °C, 2.5 h): 7.7%"
CCOC(=O)c1cnc(Cl)c2nc3n(c12)[C@@H](C)CCCCNC(=O)c1cccc(c1)C(=O)N3,,,"ring closure, isolated yield ([1]; from CCOC(=O)c1cnc(Cl)c2nc(NC(=O)c3cccc(C(=O)O)c3)n([C@@H](C)CCCCN)c12, TCFH/NMI, MeCN/DMF, 1.29 mM, 0.0 °C, 4.0 h): 49%"
COC(=O)c1cc(Br)cc2nc3n(c12)[C@@H](C)CCCCNC(=O)c1cccc(c1)C(=O)N3,,,"ring closure, isolated yield ([1]; from COC(=O)c1cc(Br)cc2nc(NC(=O)c3cccc(C(=O)O)c3)n([C@@H](C)CCCCN)c12, TCFH/NMI, DMF/MeCN, 1.4 mM, 0.0 °C, 16.0 h): 30%"
C[C@H]1CCCCNC(=O)c2cccc(c2)C(=O)Nc2nc3ccnc(Cl)c3n21,,,"ring closure, isolated yield ([1]; from C[C@@H](CCCCN)n1c(NC(=O)c2cccc(C(=O)O)c2)nc2ccnc(Cl)c21, TCFH/NMI, DMF/MeCN, 0.6 mM, 25.0 °C, 3.0 h): 20%"
Cc1nnc(-c2cccc3nc4n(c23)C(C)CCCCNC(=O)c2cccc(c2)C(=O)N4)o1 (stereo not drawn),,,"ring closure, isolated yield ([1]; from Cc1nnc(-c2cccc3nc(NC(=O)c4cccc(C(=O)O)c4)n(C(C)CCCCN)c23)o1, HATU/DIEA, THF, 0.5 mM, 25.0 °C, 16.0 h, 2 steps): 13%"
"CN1CCN(Cc2ccc3c(c2)nc2n3CCCCCNC(=O)c3cccc(n3)C(=O)N2)CC1 [Example 102, (E)-1^5-((4-methylpiperazin-1-yl)methyl)-1^2,1^3-dihydro-1^1H-2,6-diaza-1(2,1)-benzo[d]imidazola-4(2,6)-pyridinacycloundecaphane-3,5-dione]",88 µM,9 nM,"ring closure, yield after HPLC ([5]; from CN1CCN(Cc2ccc3c(c2)nc(NC(=O)c2cccc(C(=O)O)n2)n3CCCCCN)CC1, T3P/DIEA, DMF, 50.0 mM, 25.0 °C, 1.5 h): 30%"
"CCCn1c(NC(=O)c2cccc(C(N)=O)c2)nc2ccccc21 [takinib, N-(1-propyl-1H-benzo[d]imidazol-2-yl)isophthalamide, reference compound]",0.9 µM,17 nM,"IC50 [3, 7]: 280 nM; IC50 (nM) in phospho-p38 cell assay [4]: inactive"
